According to ChEMBL document CHEMBL3046205, “4-pyridyl carbonyl and related compounds as thrips lures: effectiveness for onion thrips and new zealand flower thrips in field experiments” (2007):

Columns and labels:
Type in all cases: functional
[1] = tested on: Thrips obscuratus; experiment: Thrips luring activity against male New Zealand Thrips obscuratus (flower thrips) assessed as ratio of thrips in baited traps to unbaited traps during field trapping study
[2] = tested on: Thrips tabaci; experiment: Thrips luring activity against female Thrips tabaci (onion thrips) assessed as ratio of thrips in baited traps to unbaited traps during field trapping study
[3] = tested on: Thrips obscuratus; experiment: Thrips luring activity against female New Zealand Thrips obscuratus (flower thrips) assessed as ratio of thrips in baited traps to unbaited traps during field trapping study

Row | SMILES | Ratio [1] | Ratio [2] | Ratio [3]
1 | COC(=O)c1ccccc1O [METHYL SALICYLATE] | 13.3 | 4 | 24.8
2 | O=Cc1ccccc1O [SALICYLADEHYDE] | 15.7 | 1.9 | 20.7
3 | CCCCCCCCCCOC(=O)c1ccncc1 [N-DECYL ISONICOTINATE] | 0 | 6.8 | 14.9
4 | CC(=O)/C=C/C1C(C)=CCCC1(C)C (stereo not drawn) [ALPHA-IONONE] | 0 | 1.3 | 1.8
5 | CCOC(=O)c1ccccc1 [ETHYL BENZOATE] | 24.8 | 2.1 | 35.4
6 | CC(=O)c1ccccc1N [2-AMINOACETOPHENONE] | 26.7 | 6 | 20.7
7 | CCOC(=O)c1ccccn1 [ETHYL PICOLINATE] | 5.9 | 2.8 | 4.1
8 | CC/C=C\CC1=C(C)CCC1=O [CIS-JASMONE] | 24.5 | 1.2 | 42.1
9 | CC/C=C\CC1C(=O)CCC1CC(=O)OC (stereo unspecified) [METHYL JASMONATE] | 0.9 | 0.7 | 0.8
10 | OCCc1ccncc1 [4-(2-HYDROXYETHYL)PYRIDINE] | 0 | 1.3 | 0
11 | CCOC(=O)c1cccnc1 [ETHYL NICOTINATE] | 84.8 | 3.1 | 157.6
12 | CCCOC(=O)c1ccncc1 [N-PROPYL ISONICOTINATE] | 0 | 15.4 | 9
13 | COC(=O)c1ccccc1N [METHYL ANTHRANILATE] | 22.1 | 3.5 | 28.3
14 | CCOC(=O)c1ccnc(Cl)c1 [ETHYL-2-CHLOROPYRIDINE-4-CARBOXYLATE] | 19.3 | 1.7 | 15.1
15 | N#Cc1ccncc1 [ISONICOTINONITRILE] | 19.9 | 2.4 | 0
16 | CCOC(=O)c1ccncc1 [ETHYL ISONICOTINATE] | 28.5 | 30.8 | 31.6

Row | SMILES | Ratio [1] | Ratio [2] | Ratio [3]
17 | CCOC(=O)c1ccccc1N [ETHYL ANTHRANILATE] | 0.6 | 1.1 | 1.6
18 | CCC(=O)c1ccncc1 [ETHYL 4-PYRIDYLKETONE] | 0 | 13.5 | 19.4
19 | CCCCCCOC(=O)c1ccncc1 [ISONICOTINIC ACID HEXYL ESTER] | 0 | 1.2 | 0
20 | ClC(Cl)Cl [CHLOROFORM] | 10.1 | 1.1 | 0
21 | CC(C)OC(=O)c1ccncc1 [ISOPROPYL ISONICOTINATE] | 0 | 8.8 | 9
22 | O=Cc1ccncc1 [4-FORMYLPYRIDINE] | 4.9 | 1.6 | 7.9
23 | O=Cc1ccccc1 [BENZALDEHYDE] | 3.6 | 4 | 5
24 | COc1ccc(C=O)cc1 [ANISALDEHYDE] | 22.6 | 4 | 26.2
25 | CCOC(=O)C1CCNCC1 [ETHYL ISONIPECOTATE] | 0 | 4 | 0
26 | COC(=O)c1ccccc1 [METHYL BENZOATE] | 50.5 | 6.6 | 49.1
27 | CC(=O)c1ccncc1 [METHYL 4-PYRIDYLKETONE] | 10.3 | 7.6 | 0
28 | c1cc(C2OCCO2)ccn1 [PYRIDINE, 4-(1,3-DIOXALAN-2-YL)] | 20.4 | 5.3 | 16.6
29 | OCCc1ccccc1 [PHENYLETHYL ALCOHOL] | 9.5 | 3.8 | 9.8
30 | CCOC(=O)c1ccccc1O [ETHYL SALICYLATE] | 48.5 | 3 | 32.6
31 | CC(=O)/C=C/C1=C(C)CCCC1(C)C [BETA-IONONE] | 3.8 | 2.6 | 1.8
32 | COC(=O)c1ccncc1 [METHYL ISONICOTINATE] | 5.1 | 18.9 | 44.1
